Data on 1 substance can be found in publication PMC7341468 (BMC Pharmacology & Toxicology, 2020).

For test [1], the system named is methicillin-resistant Staphylococcus aureus (MRSA). The protocol: This retrospective study was conducted between June 2015 and May 2019, and was approved by the Institutional Review Board of Hyogo College of Medicine (No. 3266). […] The analysis of Cmin and the safety population included all eligible patients.
In the next test the test system is MRSA isolates. As to conditions: all MRSA isolates; microdilution, CLSI M02 and M07. On the technique in general: Broth dilution looks for growth in wells or tubes with falling amounts of substance.

As to teicoplanin, the “Clinical success at the end of the therapy” value in test [1] (all patients of the clinical efficacy population, 55 of 76 patients) is recorded as 72.4%. For the same substance, the “Crude odds ratio (95% CI) for early clinical response” value in test [1] (factor: Enhanced high dose loading regimen, univariate analysis) is reported as 0.90 (0.31–2.63). Also, the “Adjusted odds ratio (95%CI) for early clinical response” value in test [1] (human, in vivo) is reported as 3.95 (1.25–12.53). In addition, the “Teicoplanin MICs” value in the test on MRSA isolates was at most 2 µg/mL.
